Source: patent US20260118345A1, “METHOD OF EVALUATING INTERCELLULAR INTERACTIONS IN NEUROINFLAMMATION” (FUJIFILM Corporation, priority 2023, published 2026)

Assays:
Assay type in all cases: cell-based, human
[1] = test system: NF-κB; experiment: NF-κB localization by immunostaining after LPS stimulation, two-dimensional three-cell-type co-culture of astrocytes, neurons and microglia; conditions: R-7050 10 μmol/L with LPS 100 ng/ml
Experimental: (§1) Matrigel basement membrane matrix (Corning, 356234) diluted 120-fold with DMEM/F12 (Life technologies, 11320-033) was added to a 96-well plate at 65 μL/well and allowed to stand at 4° C. After 24 hours, the culture medium was replaced with a progenitor cell culture medium and used.
Astrocyte precursor cells (XCell Science, XCS-AP-001-1V) were seeded in a 96-well plate at a density of 5×10^4 cells/well and cultured under the conditions of 37° C. and 5% CO2. The next day, the culture medium was replaced with the differentiation-inducing culture medium and further cultured for 5 days to differentiate into astrocytes.
(§2) The neurons were produced by forcing expression of the Ngn2 gene from iPS cells (WO2014/148646A; and Zhang Y, et al., Neuron, 78:785-98, 2013), and the cells that had been frozen and stored were used. The cells that had been frozen and stored were thawed in a warm bath at 37° C., and after thawing, the cells were added to the co-culture medium and centrifuged at 600×g at room temperature for 5 minutes. After centrifugation, the supernatant was removed, the cells were suspended in 1 mL of the co-culture medium, and the number of cells was counted.
As the microglia, iPS cell-derived microglia (iCell (registered trademark) Microglia, FCDI, C1110) were used. The cells that had been frozen and stored were thawed in a warm bath at 37° C., and after thawing, the cells were added to the co-culture medium and centrifuged at 600×g at room temperature for 5 minutes. After centrifugation, the supernatant was removed, the cells were suspended in 1 mL of the co-culture medium, and the number of cells was counted.
The neurons and the microglia were mixed in a ratio of 3:1 and seeded on the astrocytes at 4×10^4 cells/well. The cells were cultured under the conditions of 37° C. and 5% CO2, and half of the culture medium was replaced three times a week.
Microglia were specifically stimulated by adding LPS (FUJIFILM Wako Pure Chemical Corporation, 124-05151) at 100 ng/mL to the two-dimensional co-culture that had been cultured for 4 weeks. The cells were fixed by treating, for 30 minutes, with a formaldehyde solution (FUJIFILM Wako Pure Chemical Corporation, 061-00416) diluted 10-fold with PBS(−) (FUJIFILM Wako Pure Chemical Corporation, 166-23555) without treatment, and at 0.5 hours, 1 hour, 3 hours, 6 hours, and 24 hours after the treatment.
In addition, in the two-dimensional co-culture that had been cultured for 19 days, LPS (FUJIFILM Wako Pure Chemical Corporation, 124-05151) was added at 100 ng/ml and R-7050 (Cayman Chemical Company, 16870), which is a TNFR1 inhibitor, was added at 10 μmol/L, and the effect of TNF-α on the intercellular interaction induced by LPS stimulation was evaluated. The cells were fixed by treating, for 30 minutes, with a formaldehyde solution (FUJIFILM Wako Pure Chemical Corporation, 061-00416) diluted 10-fold with PBS (−) (FUJIFILM Wako Pure Chemical Corporation, 166-23555) without treatment, and at 0.5 hours, 1 hour, 3 hours, 6 hours, and 24 hours after the treatment.
The fixed cells were washed with PBS (−), and blocking and permeabilization were performed by treating with a solution (1% BSA/0.2% Triton X-100) in which BSA (Sigma-Aldrich, A4161) and Triton (registered trademark) X-100 (BioVision, 2104-100) were diluted to 1% and 0.2% with PBS (−) for 30 minutes. […]

[2] = test system: two-cell-type co-culture of neurons and astrocytes; experiment: Neural activity by calcium imaging (BPM), two-dimensional two-cell-type co-culture of neurons and astrocytes; conditions: 24 hours after stimulation (TNF-α 7.5 ng/mL or LPS 100 ng/mL)
Experimental: Matrigel basement membrane matrix (Corning, 356234) diluted 120-fold with DMEM/F12 (Life technologies, 11320-033) was added to a 96-well plate at 65 μL/well and allowed to stand at 4° C. After 24 hours, the culture medium was replaced with a progenitor cell culture medium and used. Astrocyte precursor cells (XCell Science, XCS-AP-001-1V) were seeded in a 96-well plate at a density of 6×10^4 cells/well, cultured under the conditions of 37° C. and 5% CO2, after culture medium was replaced with the differentiation induction culture medium, further cultured for 5 days to differentiate into astrocytes. […] After centrifugation, the supernatant was removed, the cells were suspended in 1 mL of the co-culture medium, and the number of cells was counted. […] In addition, at 24 hours after the stimulation with LPS or TNF-α, the neural activity was evaluated by calcium imaging. […] After incubating for 1 hour under conditions of 37° C. and 5% CO2, the solution was replaced with a warmed (37° C.) recording solution, and the fluorescence was measured for 10 minutes with FDSS (registered trademark)/μcell (Hamamatsu Photonics K. K., C13299). The neural activity was evaluated by quantifying the number of peaks of calcium oscillation using Wave Checker Software (Hamamatsu Photonics K. K.).

[3] = test system: NF-κB; experiment: NF-κB localization after TNF-α stimulation, two-dimensional two-cell-type co-culture of neurons and astrocytes; conditions: TNF-α 7.5 ng/mL; 3 hours after the stimulation
Experimental: as §1
Astrocyte precursor cells (XCell Science, XCS-AP-001-1V) were seeded in a 96-well plate at a density of 6×10^4 cells/well, cultured under the conditions of 37° C. and 5% CO2, after culture medium was replaced with the differentiation induction culture medium, further cultured for 5 days to differentiate into astrocytes.
as §2, with “forcibly expressing” for “forcing expression of”, “genes” for “gene”, “from the” for “from”, “cells” for “cells (WO2014/148646A; and Zhang Y, et al., Neuron, 78:785-98, 2013),”
In the two-cell-type co-culture, the neurons were seeded on the astrocytes at 3×10^4 cells/well. […]
After 3 hours of the stimulation with TNF-α, the cells were fixed by the method described in <1> of Test Example 1, and the localization of NF-κB was evaluated by the same method as in <1> of Test Example 1.

[4] = test system: three-cell-type co-culture of neurons, astrocytes, and microglia; experiment: Neural activity by calcium imaging (BPM), two-dimensional three-cell-type co-culture of neurons, astrocytes and microglia; conditions: 24 hours after stimulation (TNF-α 7.5 ng/mL or LPS 100 ng/mL)
Experimental: Matrigel basement membrane matrix (Corning, 356234) diluted 120-fold with DMEM/F12 (Life technologies, 11320-033) was added to a 96-well plate at 65 μL/well and allowed to stand at 4° C. After 24 hours, the culture medium was replaced with a progenitor cell culture medium and used. Astrocyte precursor cells (XCell Science, XCS-AP-001-1V) were seeded in a 96-well plate at a density of 6×10^4 cells/well, cultured under the conditions of 37° C. and 5% CO2, after culture medium was replaced with the differentiation induction culture medium, further cultured for 5 days to differentiate into astrocytes. […] After centrifugation, the supernatant was removed, the cells were suspended in 1 mL of the co-culture medium, and the number of cells was counted. […] After centrifugation, the supernatant was removed, the cells were suspended in 1 mL of the co-culture medium, and the number of cells was counted. […] In addition, at 24 hours after the stimulation with LPS or TNF-α, the neural activity was evaluated by calcium imaging. […] After incubating for 1 hour under conditions of 37° C. and 5% CO2, the solution was replaced with a warmed (37° C.) recording solution, and the fluorescence was measured for 10 minutes with FDSS (registered trademark)/μcell (Hamamatsu Photonics K. K., C13299). […]

Compound	activation of the microglia affecting other cells (intercellular interaction) [1]	nuclear signals of NF-κB, co-localization with microglia marker IBA1 ([1]; 1, 3, and 6 hours after the LPS stimulation)	nuclear translocation of NF-κB ([1]; 1, 3, and 6 hours after the LPS stimulation, co-culture cultured 19 days)	BPM (the number of peaks of calcium oscillation per minute) as compared with the control [2]	nuclear translocation of NF-κB in GFAP-positive cells (astrocytes) [3]	nuclear translocation of NF-κB in Neun-positive cells (neurons) [3]	BPM (the number of peaks of calcium oscillation per minute) as compared with the control [4]
FC(F)(F)c1nnc2c(Sc3ccccc3)nc3ccc(Cl)cc3n12 [R-7050]	suppressed	all co-localized with IBA1	only some cells				
TNF-α				increase	occurred	not confirmed	increase
